The values below come from PubChem BioAssay (NCI).

One may read the TGI as the concentration giving total growth inhibition. Low readings indicate more potent growth arrest, high ones less potent growth arrest. The GI50 is the concentration at which growth is held to half of that of the control.

Some test systems named below: CCRF-CEM leukemia; A498 renal; KM12 colon; HCT-15 colon; ACHN renal; UO-31 renal; HT29 colon; HCT-116 colon; EKVX NSCLC; SF-268 CNS.
What all share (assay): DTP human tumour cell line panel, 48 h

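In this assay, cells in 96-well plates receive the compound at five concentrations for 48 hours. Endpoints are linearly interpolated between the surrounding concentrations. Abbreviation: GI50, concentration required for 50% inhibition of growth. TGI denotes the concentration required for complete inhibition of growth.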

For the molecule `C[C@]12CC[C@H](O)CC1=CC[C@@H]1C2CC[C@]2(C)Nc3c(cnn3-c3ccccc3)CC12` (stereo not given in full), the TGI in the test with CCRF-CEM leukemia is 10.8 µM; in the test with A498 renal it was 29.7 µM; in the test on KM12 colon, 5.13 µM; in the test with HCT-15 colon it was 18.6 µM; in the test on ACHN renal, 29.7 µM; with UO-31 renal it was 25.3 µM. Besides, the TGI was 4.88 µM with HT29 colon, 12.2 µM in the test on HCT-116 colon and 57.7 µM with EKVX NSCLC.

With `COc1ccc(-c2nc(-c3nc4ccc(F)cc4[nH]3)c3ccccn23)cc1`, the GI50 in the test with CCRF-CEM leukemia was 4.39 µM; in the test on A498 renal, 3.83 µM; with KM12 colon, 7.03 µM; in the test on HCT-15 colon, 33.6 µM; in the test with ACHN renal it was 4.28 µM; with UO-31 renal, 6.99 µM. Also, the GI50 was 7.2 µM with SF-268 CNS, 7.13 µM in the test with HT29 colon and 3.61 µM in the test with HCT-116 colon. The TGI was over 100 µM in the test with CCRF-CEM leukemia; 31.8 µM with A498 renal; over 100 µM in the test on KM12 colon; over 100 µM in the test on HCT-15 colon; 25.9 µM with ACHN renal; 56.2 µM in the test on UO-31 renal. In addition, the figures for the TGI in the test on SF-268 CNS, in the test with HT29 colon and in the test with HCT-116 colon were 57.8 µM, over 100 µM and 17.8 µM, respectively.

For the molecule `C1CC[N-]CC1.CC(=N\O)/C(C)=N/O.CC(=N\O)/C(C)=N/O.OC1[CH-]CCCC1.[Co+2]`, the GI50 in the test with A498 renal is over 100 µM; in the test on KM12 colon, over 100 µM; with HCT-15 colon it was 65.5 µM; in the test with ACHN renal, 76.3 µM; in the test with UO-31 renal, over 100 µM; with SF-268 CNS it was 44.8 µM. In addition, the results for the GI50 with HT29 colon, in the test on HCT-116 colon and in the test on EKVX NSCLC were 72.5 µM, 30.3 µM and 31.1 µM, respectively. Besides, the TGI in the test on A498 renal, in the test with KM12 colon, in the test on HCT-15 colon, in the test with ACHN renal, in the test with UO-31 renal and in the test with SF-268 CNS was over 100 µM throughout. For the same molecule, the TGI in the test on HT29 colon, in the test on HCT-116 colon and in the test with EKVX NSCLC was over 100 µM each time.

As for `O=c1[nH]c2ccccc2n1CCCN1CCC(n2c(=O)[nH]c3cc(Cl)ccc32)CC1`, the concentration for total growth inhibition (TGI) was over 100 µM in the test on CCRF-CEM leukemia; 42.9 µM with A498 renal; 30.6 µM in the test with KM12 colon; 39.9 µM with HCT-15 colon; 32.9 µM in the test with ACHN renal; 20.3 µM in the test with UO-31 renal. The TGI in the test on HT29 colon was determined as 30.3 µM; in the test on HCT-116 colon it was 31.4 µM; in the test with EKVX NSCLC, 42.7 µM.

Turning to `c1ccc(-c2nc(N3CCOCC3)c3c4c(sc3n2)CCCCCC4)nc1`, the GI50 was 3.59 µM in the test with CCRF-CEM leukemia; 1.65 µM in the test on A498 renal; 4.28 µM in the test with KM12 colon; 3.43 µM in the test with HCT-15 colon; 4.49 µM with ACHN renal; 1.17 µM with UO-31 renal. The GI50 was 8.82 µM in the test with SF-268 CNS, 6.05 µM with HT29 colon and 3.69 µM with HCT-116 colon. Besides, the TGI in the test with CCRF-CEM leukemia was determined as 18.9 µM; in the test with A498 renal it was 8.63 µM; in the test on KM12 colon, 16.1 µM; with HCT-15 colon, 18.6 µM; in the test with ACHN renal, 16.6 µM; in the test on UO-31 renal it was 10.3 µM. In addition, the TGI with SF-268 CNS was found to be 22.6 µM; in the test with HT29 colon it was 22.7 µM; in the test with HCT-116 colon, 15.3 µM.

Consider `Cc1nn2c(/C=C3/C(=O)Nc4cc(Cl)ccc43)c(-c3ccccc3)nc2s1`, for which the GI50 was 4.35 µM with CCRF-CEM leukemia; 15.5 µM with A498 renal; 59.1 µM in the test on KM12 colon; 4.79 µM in the test on HCT-15 colon; 1.54 µM with ACHN renal; 1.59 µM in the test on UO-31 renal. Further, the GI50 is 6.81 µM in the test on SF-268 CNS, 11.1 µM in the test with HT29 colon and 1.85 µM in the test on HCT-116 colon. In addition, the TGI with CCRF-CEM leukemia is over 100 µM; in the test with A498 renal, 72 µM; in the test with KM12 colon, over 100 µM; in the test on HCT-15 colon it was over 100 µM; in the test on ACHN renal, 3.08 µM; with UO-31 renal, 3.53 µM. Also, the TGI in the test on SF-268 CNS was over 100 µM; in the test with HT29 colon it was over 100 µM; in the test with HCT-116 colon, 3.46 µM.

On to `NCCOCCOCCNc1nc(-c2ccc(Cl)cc2)nc(N2CCN(c3ccccn3)CC2)n1`, for which the GI50 is 1.33 µM in the test with A498 renal; 1.84 µM in the test with KM12 colon; 1.87 µM in the test with HCT-15 colon; 2.48 µM with ACHN renal; 2.07 µM in the test with UO-31 renal; 3.24 µM with SF-268 CNS. Besides, the GI50 with HT29 colon was 1.85 µM; in the test with HCT-116 colon, 1.75 µM. The TGI with A498 renal came out at 7.71 µM; in the test with KM12 colon, 3.5 µM; with HCT-15 colon, 3.85 µM; with ACHN renal, 6.43 µM; with UO-31 renal, 5.02 µM; in the test with SF-268 CNS, 12.9 µM. The figures for the TGI with HT29 colon and with HCT-116 colon were 3.78 µM and 3.22 µM, respectively.

Take `CC(C)OP(=O)(OC(C)C)/C(N)=N/Nc1ccc([N+](=O)[O-])cc1`: the TGI in the test on CCRF-CEM leukemia, in the test with KM12 colon, with HCT-15 colon, in the test with ACHN renal, with UO-31 renal and in the test with SF-268 CNS was over 100 µM throughout. Moreover, the concentration for total growth inhibition (TGI) in the test on HCT-116 colon and in the test with EKVX NSCLC was over 100 µM in each case.

As for `CSCCCNC(=O)c1ccc2c(c1)/C(=C/c1[nH]c(C)cc1C)C(=O)N2`, the GI50 was 4.36 µM with CCRF-CEM leukemia; 0.47 µM in the test with A498 renal; 0.43 µM with KM12 colon; 0.44 µM with HCT-15 colon; 0.299 µM in the test on ACHN renal; 0.347 µM in the test with UO-31 renal. Besides, the GI50 is 1.98 µM in the test with SF-268 CNS, 4.95 µM in the test with HT29 colon and 0.548 µM in the test with HCT-116 colon. The TGI was over 100 µM in the test on CCRF-CEM leukemia; 2.7 µM in the test with A498 renal; over 100 µM in the test on KM12 colon; over 100 µM with HCT-15 colon; over 100 µM in the test with ACHN renal; over 100 µM in the test on UO-31 renal. The TGI in the test on SF-268 CNS, in the test with HT29 colon and in the test with HCT-116 colon was over 100 µM in each case.

With `COC(=O)C1=C(C(=O)OC)C2(C)C=CC1O2` (stereo not given), the TGI in the test with A498 renal was 54 µM; in the test on HCT-15 colon, 29.7 µM; with ACHN renal, 18.7 µM; in the test with UO-31 renal it was 17.6 µM; in the test on SF-268 CNS, over 100 µM; with HT29 colon, 28.5 µM. The concentration for total growth inhibition (TGI) with HCT-116 colon amounted to 22.3 µM; in the test on EKVX NSCLC it was 41.3 µM.
